Data on one compound can be found in patent US10905651B1, “Zeinmersome nanocarriers for drug delivery to the liver” (King Abdulaziz University, priority 2020, dated 2021).

A short description of data set [1]: In vitro diffusion studies (Franz diffusion cell). The data set is classed as physicochemical. The note with it: within a 4-hour time period; 0.1 μm nylon membrane, buffer pH 7.0 with Tween 20 0.5% w/v. How it is done: The formula characterization was assessed by examining its diffusion pattern. An automated Franz diffusion cell apparatus (MicroettePlus; Hanson Research, Chatsworth, Calif., US) with a diffusion area of 1.76 cm^2 was utilized to examine the diffusion of OM from the prepared formula as described previously (Ahmed et al., 2019. Internat J Pharmaceu 570: 118657). A 0.1 μm nylon diffusion membrane and a buffer (pH 7.0) containing Tween 20 (0.5% w/v) were used, and this was stirred at 400 rpm. The aliquots were analyzed for OM concentration by HPLC as previously reported. The samples were collected at 0.5, 1, 2, 4, 8, 12, 24 and 48 h.

Data set [2] deals with TAA-induced hepatic fibrosis rats. Description: Histopathology of duodenal sections and detection of sprue-like enteropathy in TAA-induced hepatic fibrosis rats. The note with it: two months. Format: in vivo, rat. How it is done:
Rats were given freshly prepared TAA (0.9% w/v in saline solution, 200 mg/kg, ip) twice weekly for eight weeks. A normal control (NC) group of rats (n=8) received injections of the vehicle twice weekly for eight weeks. The TAA-treated rats were randomly assigned to groups (n=8), including a test group for each dosage of a free drug (not encapsulated in ZMS), each dosage of zeinmersomes encapsulating the drug, and a positive control group (PC) having hepatic fibrosis but receiving a vehicle-only treatment instead of a drug treatment. Five groups of rats (n=8) were given freshly prepared TAA (0.9% w/v in saline solution, 200 mg/kg, ip) twice weekly for eight weeks and a normal control (NC) group received vehicle injections, as described in Example 4. The five TAA groups included a positive control group (PC, untreated) and four groups treated with low and high doses (2 and 4 mg/kg/day) of OM as raw drug (OL & OH, respectively) and the same low and high doses (2 and 4 mg/kg/day) of OM formulated as zeinmersomes (OLZMS & OHZMS, respectively). […] The plasma levels of ALT and AST and the homogenate levels of IL-6, reduced glutathione (GSH), TNF-α, malondialdehyde (MDA), and protein content were measured using ELISA kits (MyBioSource, Inc. CA, USA). In addition, the concentrations of olmesartan in plasma and liver homogenate were measured by HPLC/MS. […]

Data set [3] shares this test system. In words: Assessment of liver function (plasma ALT and AST) in TAA-induced hepatic fibrosis rats. The note with it: mean ± SEM, n=8. The data set is classed as in vivo, rat. The procedure:
The protocol for this study was approved by the King Abdulaziz University Research Ethics Committee and adhered to the international guidelines for the Care and Use of Laboratory Animals. Adult Sprague-Dawley male rats weighing 200-250 g were obtained from King Fahd Research Center and housed in cages at 20-22° C. room temperature in a 12 h light-dark cycle. After one week of acclimatization, rats were used in the experiment. Food and water were available ad libitum. Rats were given freshly prepared TAA (0.9% w/v in saline solution, 200 mg/kg, ip) twice weekly for eight weeks. A normal control (NC) group of rats (n=8) received injections of the vehicle twice weekly for eight weeks. The TAA-treated rats were randomly assigned to groups (n=8), including a test group for each dosage of a free drug (not encapsulated in ZMS), each dosage of zeinmersomes encapsulating the drug, and a positive control group (PC) having hepatic fibrosis but receiving a vehicle-only treatment instead of a drug treatment. Five groups of rats (n=8) were given freshly prepared TAA (0.9% w/v in saline solution, 200 mg/kg, ip) twice weekly for eight weeks and a normal control (NC) group received vehicle injections, as described in Example 4. The five TAA groups included a positive control group (PC, untreated) and four groups treated with low and high doses (2 and 4 mg/kg/day) of OM as raw drug (OL & OH, respectively) and the same low and high doses (2 and 4 mg/kg/day) of OM formulated as zeinmersomes (OLZMS & OHZMS, respectively). The OM standard drug was suspended in distilled water containing 0.25% w/v carboxymethyl cellulose. The doses were given by oral gavage once daily for two months. […] At the end of treatment duration, blood samples were withdrawn from the retro-orbital plexus of the rats under light ether anesthesia. Plasma was separated and kept at −80° C. until analysis. Then, the rats were sacrificed by cervical dislocation under ether anesthesia. Liver and duodenum were isolated and parts of each were kept in 10% formalin-saline for histopathological examination. Other portions of liver tissue were homogenized. The plasma levels of ALT and AST and the homogenate levels of IL-6, reduced glutathione (GSH), TNF-α, malondialdehyde (MDA), and protein content were measured using ELISA kits (MyBioSource, Inc. CA, USA). In addition, the concentrations of olmesartan in plasma and liver homogenate were measured by HPLC/MS. Data are expressed as mean±SEM Comparisons between different groups were carried out using one-way analysis of variance (ANOVA) followed by Bonferroni test for multiple comparisons. […] The levels of ALT and AST were measured by using ELISA commercially available kits according to the manufacturer's protocol.

Data set [4] concerns bile duct-ligated fibrotic rats. The following applies: 1 mg/kg/day orally; cited from earlier work.
Where [5] appears, read: high dose 4 mg/kg/day oral gavage once daily for two months.
Where [6] appears, read: low dose 2 mg/kg/day oral gavage once daily for two months.

Structures are written as SMILES.

For `CCCc1nc(C(C)(C)O)c(C(=O)OCc2oc(=O)oc2C)n1Cc1ccc(-c2ccccc2-c2nnn[nH]2)cc1` [OM, (5-methyl-2-oxo-1,3-dioxol-4-yl)methyl 5-(2-hydroxypropan-2-yl)-2-propyl-3-[[4-[2-(2H-tetrazol-5-yl)phenyl]phenyl]methyl]imidazole-4-carboxylate], in data set [1], the “diffusion of OM (percentage permeated)” value is about 97.5±13.07%. Also, the “duodenal histopathology (TAA-induced duodenal changes)” value is recorded as “mild improvement” in data set [2] (high dose 4 mg/kg/day oral) and “swollen distorted villi with damaged desquamated surface epithelium” in data set [2] (low dose 2 mg/kg/day oral). The “plasma ALT” value in data set [3] (setting [5]) turned out to be 81.41 U/L; in data set [3] (setting [6]), 114.88 U/L. Besides, the “plasma AST” value in data set [3] (setting [5]) turned out to be 169.00 U/L; in data set [3] (setting [6]), 198.32 U/L. For the same compound, the “liver hydroxyproline content, mRNA expression of collagen, α-smooth muscle actin, and plasma levels of TGF-β” value in data set [4] is given as “significantly reduced”.
